Data as given in US20230117034A1, “PYRAZOLOTRIAZINES” (Bayer Aktiengesellschaft, priority 2019, published 2023).
pIC50: −log10 of the molar value.

What was measured:
Assay type in all cases: cell-based
[1] = system: CAL-120, human breast adenocarcinoma cells; test: Proliferation assay CAL-120 (crystal violet, 4 days); settings: Homo sapiens, CAL-120, 96 h, CAL-120 cells, median, read-out: Prolif-CAL-120, IC50-[mol/l] (median)
In short: (§1)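 IC50 from a 4-parameter fit of crystal violet absorbance (595 nm), scaled between a day-0 plate (0%) and untreated wells (100%). Cells grown in 10% FCS medium were exposed to test substances at 0.01-10 µmol/L for 4 days, 0.1% DMSO final.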

[2] = target: T1, CDK12 protein level in CAL-120 breast cancer cells (Homo sapiens, UniProt Q9NYV4); test: CDK12 protein level: Protein Simple (CDK12, CAL-120); settings: CAL-120 cells, 18 h with compound, CDK12/HSP90 peak area ratio vs vehicle, median, read-out: CDK12 protein level in CAL-120 breast ca cells, DC50-[mol/l] (median)
T1 construct: endogenous in cells; host or cells: CAL-120 human breast cancer cells (DSMZ ACC 459)
Procedure: CAL-120 human breast cancer cells (DSMZ ACC 459) were seeded at 300,000 cells/well in 6-well plates containing 2 mL of growth medium (DMEM, 10% FCS, glutamine) and incubated for 24 h at 37° C. in an humidified incubator. Test compounds were added at various concentrations, control wells received solvent (DMSO), and the plates were incubated for another 18 h at 37° C. Cells were washed 2 times with PBS and lysed in 75 microL lysis buffer (MSD-Puffer (MSD, #R60TX-2), +1% 505S+PhosSTOP (Roche #04906837001)+complete mini (Roche #04693159001)) by scraping. The lysates were pushed 2 times through Qiashedders followed by centrifugation at 14,000 rpm for 30-50 sec. The supernatant was stored at −20° C. Proteins were separated by applying 0.4 microgramms of protein lysate to Protein Simple 66-440 kDa (Protein Simple #SM-S002) size assay columns on a PEGGY SUE or SALLY SUE equipment according to the supplier's manual. CDK12 and HSP90 (loading control) were detected using anti-human CDK12 antibody (Cell Signaling Technologies (CST) #11793) at 1:25 dilution and anti-human HSP90 antibody (CST #4877) at 1:5,000 dilution. CDK12 and HSP90 peak areas were determined using Protein Simple Compass software. Ratio of CDK12/HSP90 peak areas were calculated for each sample, and […] values (degrading concentration to achieve 50% reduction relative to vehicle treated control) were determined by means of a 4 parameter fit.

[3] = system: MDA-MB-231, human breast cancer cells; test: Proliferation assay MDA-MB-231 (crystal violet, 4 days); settings: Homo sapiens, MDA-MB-231, 96 h, MDA-MB-231 cells, median, read-out: Prolif-MDA MB-231, IC50-[mol/l] (median)
In short: as §1

[4] = system: BRCA1 mRNA expression in CAL-120 cells; test: qRT-PCR assay: BRCA1 mRNA expression in CAL-120; settings: Homo sapiens; Inhibition of BRCA1 mRNA expression in CAL-120 cells; median; read-out: RTqPCR-CAL-120, IC50, BRCA1 (median)
Procedure: 3. qRT-PCR Assay: BRCA, ATR, MCL1 in MDA-MB-231, CAL-120
Tissue cultured human MDA-MB-231 human breast cancer cells were plated in 500 microL per well at 200,000 cells/well in a 24 well microtiter plate. After 24 h, the cells were exposed continuously for 24 h to test substances (substances were added with Tecan HP 0300 Dispenser). RNA was prepared using Qiagen RNeasy MiniKit (#74106), RNA was quantified using a NanoDrop Equipment, and 600 nano gamms of RNA was coverted to cDNA using a SuperScript VILO kit (Thermofisher #11755050) followed by qPCR amplification. BRCA1 and ATR gene expression was measured by RT-qPCR and normalised to GAPDH housekeeping gene expression. qPCR primer sets have been purchased from Thermo Fisher Scientific/Applied Biosystems: BRCA1, #Hs 01556193; ATR, #Hs 00992123; GAPDH, #Hs 03929097.

T1 sequence (Q9NYV4 whole entry): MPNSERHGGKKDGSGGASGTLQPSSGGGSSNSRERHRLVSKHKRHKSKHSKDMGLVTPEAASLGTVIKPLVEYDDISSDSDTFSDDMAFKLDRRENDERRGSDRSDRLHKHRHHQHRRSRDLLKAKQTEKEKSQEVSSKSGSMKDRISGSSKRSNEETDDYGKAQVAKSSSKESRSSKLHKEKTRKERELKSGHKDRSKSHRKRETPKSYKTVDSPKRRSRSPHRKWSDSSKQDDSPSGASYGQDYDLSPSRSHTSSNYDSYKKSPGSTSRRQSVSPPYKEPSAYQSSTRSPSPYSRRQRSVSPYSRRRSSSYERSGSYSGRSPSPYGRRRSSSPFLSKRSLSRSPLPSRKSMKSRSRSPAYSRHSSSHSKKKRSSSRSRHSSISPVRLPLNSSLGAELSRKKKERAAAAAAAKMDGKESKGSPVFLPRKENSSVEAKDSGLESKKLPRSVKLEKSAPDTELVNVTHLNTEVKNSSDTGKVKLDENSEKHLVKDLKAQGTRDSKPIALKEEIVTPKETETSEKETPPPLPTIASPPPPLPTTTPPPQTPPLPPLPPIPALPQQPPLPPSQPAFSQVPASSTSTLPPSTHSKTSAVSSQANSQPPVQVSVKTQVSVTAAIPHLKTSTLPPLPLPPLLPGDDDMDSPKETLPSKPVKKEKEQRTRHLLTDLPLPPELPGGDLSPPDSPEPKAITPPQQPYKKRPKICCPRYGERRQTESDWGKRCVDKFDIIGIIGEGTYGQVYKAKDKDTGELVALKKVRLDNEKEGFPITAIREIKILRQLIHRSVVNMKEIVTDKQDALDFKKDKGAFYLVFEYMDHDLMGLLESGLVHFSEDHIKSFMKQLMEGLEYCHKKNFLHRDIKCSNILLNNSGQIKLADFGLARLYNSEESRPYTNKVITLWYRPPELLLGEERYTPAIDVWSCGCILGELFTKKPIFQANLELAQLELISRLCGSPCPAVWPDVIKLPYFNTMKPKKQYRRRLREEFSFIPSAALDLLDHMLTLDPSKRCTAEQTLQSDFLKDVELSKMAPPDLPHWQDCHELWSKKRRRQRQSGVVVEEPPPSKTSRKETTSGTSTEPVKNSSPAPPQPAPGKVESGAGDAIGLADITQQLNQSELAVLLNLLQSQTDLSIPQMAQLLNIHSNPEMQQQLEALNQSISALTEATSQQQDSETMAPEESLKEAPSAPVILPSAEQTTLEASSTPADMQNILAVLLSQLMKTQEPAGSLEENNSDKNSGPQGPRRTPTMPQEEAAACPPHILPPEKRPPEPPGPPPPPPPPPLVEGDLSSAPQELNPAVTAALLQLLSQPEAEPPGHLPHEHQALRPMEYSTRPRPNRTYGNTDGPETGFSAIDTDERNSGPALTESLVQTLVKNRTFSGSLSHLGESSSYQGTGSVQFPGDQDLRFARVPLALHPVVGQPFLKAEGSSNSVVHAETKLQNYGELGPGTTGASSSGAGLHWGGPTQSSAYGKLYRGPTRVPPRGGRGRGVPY
T1 sequence (O75909 whole entry partner): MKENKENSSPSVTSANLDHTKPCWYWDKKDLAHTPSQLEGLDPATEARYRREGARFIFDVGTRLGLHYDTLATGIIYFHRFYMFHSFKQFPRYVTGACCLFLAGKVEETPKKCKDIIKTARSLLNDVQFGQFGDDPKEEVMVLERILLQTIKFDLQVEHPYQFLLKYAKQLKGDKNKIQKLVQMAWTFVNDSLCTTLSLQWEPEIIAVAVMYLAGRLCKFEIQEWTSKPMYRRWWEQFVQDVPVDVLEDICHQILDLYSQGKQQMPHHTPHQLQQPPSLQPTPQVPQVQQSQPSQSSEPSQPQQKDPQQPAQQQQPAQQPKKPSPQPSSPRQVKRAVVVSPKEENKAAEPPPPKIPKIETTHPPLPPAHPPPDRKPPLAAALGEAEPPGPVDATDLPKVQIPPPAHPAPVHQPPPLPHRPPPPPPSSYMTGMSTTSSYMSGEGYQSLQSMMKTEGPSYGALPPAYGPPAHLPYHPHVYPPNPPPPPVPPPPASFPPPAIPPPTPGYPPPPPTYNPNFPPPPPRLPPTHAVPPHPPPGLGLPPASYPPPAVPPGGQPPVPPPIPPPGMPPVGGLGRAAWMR

| SMILES | pIC50 [1] | DC50 [2] | pIC50 [3] | pIC50 [4] |
| --- | --- | --- | --- | --- |
| C[C@H]1CN(c2nc(NCc3nc4ccccc4[nH]3)n3ncc(Br)c3n2)CCN1 [Example 169, N-[(1H-benzimidazol-2-yl)methyl]-8-bromo-2-[(3S)-3-methylpiperazin-1-yl]pyrazolo[1,5-a][1,3,5]triazin-4-amine] | 8.45 | 1.04 nM | 7.68 | – |
| OC1CCCN(c2nc(NCc3nc4ccccc4[nH]3)n3ncc(Br)c3n2)C1 (racemic) [Example 16, (rac)-1-(4-{[(1H-benzimidazol-2-yl)methyl]amino}-8-bromopyrazolo[1,5-a][1,3,5]triazin-2-yl)piperidin-3-ol] | 7.42 | 58.1 nM | 7.09 | – |
| Clc1cnn2c(NCc3nc4ccccc4[nH]3)nc(N3CCOCC3)nc12 [Example 15, N-[(1H-benzimidazol-2-yl)methyl]-8-chloro-2-(morpholin-4-yl)pyrazolo[1,5-a][1,3,5]triazin-4-amine] | 7.53 | 2.98 nM | 7.35 | 7.53 |
| Fc1ccc2[nH]c(CNc3nc(N4CCNCC4)nc4c(C5CC5)cnn34)nc2c1 [Example 190, 8-cyclopropyl-N-[(5-fluoro-1H-benzimidazol-2-yl)methyl]-2-(piperazin-1-yl)pyrazolo[1,5-a][1,3,5]triazin-4-amine] | 8.18 | 0.307 nM | 8.40 | – |
| CC(C)c1cnn2c(NCc3nc4ccccc4[nH]3)nc(Nc3ccncc3)nc12 [Example 14, N^4-[(1H-benzimidazol-2-yl)methyl]-8-(propan-2-yl)-N^2-(pyridin-4-yl)pyrazolo[1,5-a][1,3,5]triazine-2,4-diamine] | – | 9.38 nM | 7.33 | – |
| COc1cccc2[nH]c(CNc3nc(N4C[C@H]5C[C@@H]4CO5)nc4c(C5CC5)cnn34)nc12 [Example 198, 8-cyclopropyl-N-[(4-methoxy-1H-benzimidazol-2-yl)methyl]-2-[(1R,4R)-2-oxa-5-azabicyclo[2.2.1]heptan-5-yl]pyrazolo[1,5-a][1,3,5]triazin-4-amine] | 7.51 | – | 7.01 | – |
| C[C@@H]1CN(c2nc(NCc3nc4cc(F)ccc4[nH]3)n3ncc(C4CC4)c3n2)C[C@H](C)N1 [Example 175, 8-cyclopropyl-2-[(3R,5S)-3,5-dimethylpiperazin-1-yl]-N-[(5-fluoro-1H-benzimidazol-2-yl)methyl]pyrazolo[1,5-a][1,3,5]triazin-4-amine] | 8.94 | – | 8.49 | – |
| Brc1cnn2c(NCc3nc4ccccc4[nH]3)nc(N3CC4CCC(C3)N4)nc12 [Example 232, N-(1H-benzimidazol-2-ylmethyl)-8-bromo-2-(3,8-diazabicyclo[3.2.1]octan-3-yl)pyrazolo[1,5-a][1,3,5]triazin-4-amine] | 8.28 | – | 7.75 | – |
| COc1cccc2[nH]c(CNc3nc(N4CCN(C)CC4)nc4c(C5CC5)cnn34)nc12 [Example 197, 8-cyclopropyl-N-[(4-methoxy-1H-benzimidazol-2-yl)methyl]-2-(4-methylpiperazin-1-yl)pyrazolo[1,5-a][1,3,5]triazin-4-amine] | 8.30 | – | 7.81 | – |
| C[C@@H]1CN(c2nc(NCc3nc4c(F)cccc4[nH]3)n3ncc(C4CC4)c3n2)C[C@H](C)N1 [Example 186, 8-cyclopropyl-2-[(3R,5S)-3,5-dimethylpiperazin-1-yl]-N-[(4-fluoro-1H-benzimidazol-2-yl)methyl]pyrazolo[1,5-a][1,3,5]triazin-4-amine] | 8.38 | – | 8.31 | – |
| CN1CCN(c2nc(NCc3nc4ccccc4[nH]3)n3ncc(Br)c3n2)CC1 [Example 18, N-[(1H-benzimidazol-2-yl)methyl]-8-bromo-2-(4-methylpiperazin-1-yl)pyrazolo[1,5-a][1,3,5]triazin-4-amine] | 7.49 | – | 7.51 | – |
| Cc1ccc2[nH]c(CNc3nc(N4C[C@H]5C[C@@H]4CO5)nc4c(Br)cnn34)nc2c1 [Example 192, 8-bromo-N-[(5-methyl-1H-benzimidazol-2-yl)methyl]-2-[(1R,4R)-2-oxa-5-azabicyclo[2.2.1]heptan-5-yl]pyrazolo[1,5-a][1,3,5]triazin-4-amine] | 8.51 | – | 8.31 | – |

More lines, now with the values ahead:

| pIC50 [1] | DC50 [2] | pIC50 [3] | pIC50 [4] | SMILES |
| --- | --- | --- | --- | --- |
| 7.53 | 7.29 nM | 7.54 | – | FC(F)(F)c1cnn2c(NCc3nc4ccccc4[nH]3)nc(N3CCOCC3)nc12 [Example 241, N-[(1H-benzimidazol-2-yl)methyl]-2-(morpholin-4-yl)-8-(trifluoromethyl) pyrazolo[1,5-a][1,3,5]triazin-4-amine] |
| 8.89 | – | 8.65 | – | Cc1ccc2[nH]c(CNc3nc(N4C[C@@H](C)N[C@@H](C)C4)nc4c(Br)cnn34)nc2c1 [Example 209, 8-bromo-2-[(3R,5S)-3,5-dimethylpiperazin-1-yl]-N-[(5-methyl-1H-benzimidazol-2-yl)methyl]pyrazolo[1,5-a][1,3,5]triazin-4-amine] |
| 9.06 | – | 8.80 | – | Cc1ccc2[nH]c(CNc3nc(N4CCNCC4)nc4c(Br)cnn34)nc2c1 [Example 204, 8-bromo-N-[(5-methyl-1H-benzimidazol-2-yl)methyl]-2-(piperazin-1-yl)pyrazolo[1,5-a][1,3,5]triazin-4-amine] |
| 7.35 | – | 7.24 | – | CCNc1nc(NCc2nc3ccccc3[nH]2)n2ncc(Br)c2n1 [Example 227, N4-(1H-benzimidazol-2-ylmethyl)-8-bromo-N2-ethyl-pyrazolo[1,5-a][1,3,5]triazine-2,4-diamine] |
| 7.89 | – | 7.50 | – | CN1CC2CCC1CN2c1nc(NCc2nc3ccccc3[nH]2)n2ncc(Br)c2n1 (stereo not drawn) [Example 221, N-(1H-benzimidazol-2-ylmethyl)-8-bromo-2-(5-methyl-2,5-diazabicyclo[2.2.2]octan-2-yl)pyrazolo[1,5-a][1,3,5]triazin-4-amine] |
| 8.99 | – | 8.77 | – | Cc1ccc2[nH]c(CNc3nc(N4C[C@@H]5CCCN[C@@H]5C4)nc4c(Br)cnn34)nc2c1 [Example 203, 8-bromo-N-[(5-methyl-1H-benzimidazol-2-yl)methyl]-2-[(4aS, 7aS)-octahydro-6H-pyrrolo[3,4-b]pyridin-6-yl]pyrazolo[1,5-a][1,3,5]triazin-4-amine] |
| 6.56 | – | 6.36 | – | OCCNc1nc(NCc2nc3ccccc3[nH]2)n2ncc(Br)c2n1 [Example 228, 2-[(4-{[(1H-benzimidazol-2-yl)methyl]amino}-8-bromopyrazolo[1,5-a][1,3,5]triazin-2-yl)amino]ethan-1-ol] |
| 7.02 | – | 6.82 | – | OC1(C(F)(F)F)CCN(c2nc(NCc3nc4ccccc4[nH]3)n3ncc(Br)c3n2)C1 (stereo not drawn) [Example 200, 1-[4-(1H-benzimidazol-2-ylmethylamino)-8-bromo-pyrazolo[1,5-a][1,3,5]triazin-2-yl]-3-(trifluoromethyl)pyrrolidin-3-ol] |
| 6.79 | – | 6.79 | – | CN(CCO)c1nc(NCc2nc3ccccc3[nH]2)n2ncc(Br)c2n1 [Example 237, 2-[(4-{[(1H-benzimidazol-2-yl)methyl]amino}-8-bromopyrazolo[1,5-a][1,3,5]triazin-2-yl)(methyl)amino]ethan-1-ol] |
